# According to publication PMC11500415, “Chemical inhibition of stomatal differentiation by perturbation of the master-regulatory bHLH heterodimer via an ACT-Like domain” (Nature Communications, 2024):
# Where “and” joins values, the source holds several entries; their conditions need not be identical. Equal values may be shown once. Entries after “also recorded” stand apart in the source; their conditions may differ.
# Legend:
# [1] = test system: Arabidopsis wild-type (WT) seedlings; assay: Stomatal development bioassay, seedlings in liquid culture; format: in vivo; details: for effect on stomatal development (in words): WT seedlings; for Number of stomata per 1 mm2 of cotyledon abaxial epidermis: single seedlings n=8 (Fig. 2c); for reduction of total number of stomata and meristemoids / decrease of the number of stomata from mock / increase of the number of meristemoids from mock: WT (Fig. 1e); for meristemoid density, mean / stomata density, mean / total (stomata+meristemoid) density, mean: mean of n=8 (Fig. 1e)
# Method: (§1) Arabidopsis accession Columbia (Col-0) was used as wild-type. […] Their genotype and transcript reduction were confirmed. The presence of transgenes/mutant alleles were confirmed by genotyping. For liquid culture with Stomidazolone (AYSJ929, compound 3), the analogs (AYSJ1059 (compound 5) and AYSJ1061 (compound 6)), degraded compound lzx103 (compound 4), and SIM3* (compound 7), all compounds were dissolved in dimethyl sulfoxide (DMSO, Molecular biology grade, Fujifilm Wako, Japan 046-21981), Col-0 seeds were sown in 96-well plates (TL5003; True Line) containing 95 μL of 1/2 MS media containing 0.5% sucrose with rotary shaking at 140 rpm under continuous light at 22 °C. Five μL of compounds were dissolved in DMSO at 10 mM and diluted with liquid 1/2 MS media to 1 mM and added on 1-day-old seedlings (final concentration, 50 μM). Seedlings were incubated for 8 days, and at day 9 seedling abaxial cotyledons were observed through confocal microscopy. For liquid culture of scrm-D_S343 and scrm-D_S423, 1/2 MS liquid media without sucrose was used. For the solid culture, 0, 20, 50 or 100 μM Stomidazolone were solidified with low-melting agarose (5805S, PrimeGelTM Agarose LMT 1-20 K, TAKARA Bio). Briefly, 1/2 MS salt, 0.5% sucrose, and 0.8% low melting agarose were mixed in water and autoclaved. After cooling the medium at around 30 °C, Stomidazolone (500x, dissolved in DMSO) was added and poured into 90 mm petri dishes (Asnol Petri Dish JP φ90 x 15 mm, 3-1491-01, AS ONE). Col-0 seeds were sown on Stomidazolone-containing 1/2 MS agarose media and grown under continuous light for 9 days.
# For confocal microscopy, cell peripheries of seedlings were visualized with propidium iodide (Sigma, P4170). Images were acquired using LSM800 or LSM700 (Zeiss) using a 20x lens. The GFP, YFP reporter and PI signals were detected with excitation at 488 nm and an emission filter of 410 to 546 nm, at 488 nm and an emission filter of 410 to 546 nm, and with excitation at 561 nm and 582–617 nm emission range, respectively. Raw data were collected with 1024 × 1024 pixel images. For qualitative image presentation, Adobe Photoshop CC was used to trim and uniformly adjust the contrast/brightness.
# For quantitative analysis of the abaxial leaf epidermis, confocal images were taken on the days after germination as indicated in the Figure legends. Preparation of images was done as described previously[32],[70]. For counting epidermal cell types, stomatal density, stomatal precursor cells (meristemoids), total stomata-lineage cells (stomata and meristemoids) were calculated by counting cell types in an area of 0.4 mm^2 (0.63 mm × 0.63 mm) and plotted as per mm^2. A series of Z-stack confocal images was obtained to obtain images covering the epidermis and capturing GFP/YFP signal from the reporter lines. The area and the number of epidermal cells were quantified by using FIJI-ImageJ. Statistical analyses were performed using R ver. 4.0.2. Sample sizes (n) are indicated and defined in each legend. For the multiple sample comparison, 1-way ANOVA was performed followed by a post hoc Tukey HSD test. For the two-sample comparison, Student’s T-test was performed. Graphs were generated using R ggplot2 package. For all boxplots, each box represents IQR (interquartile range), in which top, middle line, and bottom indicating 75, 50, and 25 percentiles, respectively, and the bar representing maximum to minimal values. Each magenta dot represents jittered individual data point. The datapoints that go beyond the bar are outliers, which are indicated as black dots. If the data point is greater than Q3 + 1.5*IQR (above the third quartile is greater than 1.5 times of the interquartile range) or less than Q1 − 1.5*IQR, that data point is classified as outlier. The color of Boxplot graph was based on ColorBrewer.org. The value of n, the number of each experiment or samples, the means of error bars, and how statistical significance was defined are indicated in a relevant figure legend. […]
# [2] = test system: Arabidopsis WT seedlings on solid MS media; assay: Stomatal development bioassay on solid media; format: in vivo; details: for MI (%) meristemoid index / SI (%) stomatal index: solid culture, cotyledon abaxial epidermis, individual seedlings
# Method: as §1
# For quantitative analysis of the abaxial leaf epidermis, confocal images were taken on the days after germination as indicated in the Figure legends. Preparation of images was done as described previously[32],[70]. For counting epidermal cell types, stomatal density, stomatal precursor cells (meristemoids), total stomata-lineage cells (stomata and meristemoids) were calculated by counting cell types in an area of 0.4 mm^2 (0.63 mm × 0.63 mm) and plotted as per mm^2. A series of Z-stack confocal images was obtained to obtain images covering the epidermis and capturing GFP/YFP signal from the reporter lines. The area and the number of epidermal cells were quantified by using FIJI-ImageJ. Statistical analyses were performed using R ver. 4.0.2. Sample sizes (n) are indicated and defined in each legend. For the multiple sample comparison, 1-way ANOVA was performed followed by a post hoc Tukey HSD test. For the two-sample comparison, Student’s T-test was performed. Graphs were generated using R ggplot2 package. For all boxplots, each box represents IQR (interquartile range), in which top, middle line, and bottom indicating 75, 50, and 25 percentiles, respectively, and the bar representing maximum to minimal values. Each magenta dot represents jittered individual data point. The datapoints that go beyond the bar are outliers, which are indicated as black dots. If the data point is greater than Q3 + 1.5*IQR (above the third quartile is greater than 1.5 times of the interquartile range) or less than Q1 − 1.5*IQR, that data point is classified as outlier. The color of Boxplot graph was based on ColorBrewer.org. The value of n, the number of each experiment or samples, the means of error bars, and how statistical significance was defined are indicated in a relevant figure legend. See Source Data for quantitative data underlying each figure.
# [3] = 50 μM, WT, single seedlings n=8 (Fig. 4b)
# [4] = 50 μM, cotyledon abaxial epidermis, individual seedlings
smiles,measurement,setting,value
Cc1ccc(C2(NS(=O)(=O)c3ccccc3)N=C(c3ccccc3)C(=O)N2S(=O)(=O)c2ccccc2)cc1 (stereo not shown) [AYSJ1059],effect on stomatal development (in words),"[1]; 50 μM, liquid culture",did not affect the number of stomata
same,Number of stomata per 1 mm2 of cotyledon abaxial epidermis,"[1]; 50 μM, WT, 9 dag",202 per 1 mm2 and 209 per 1 mm2 and 187 per 1 mm2 and 245 per 1 mm2 and 192 per 1 mm2 and 182 per 1 mm2 and 199 per 1 mm2 and 175 per 1 mm2
O=C1C(c2ccccc2)=NC(NS(=O)(=O)c2ccccc2)(c2ccc(Br)cc2)N1S(=O)(=O)c1ccccc1 (stereo not shown) [AYSJ1061],effect on stomatal development (in words),"[1]; 50 μM, liquid culture",did not affect the number of stomata
same,Number of stomata per 1 mm2 of cotyledon abaxial epidermis,"[1]; 50 μM, WT, 9 dag",160 per 1 mm2 and 190 per 1 mm2 and 148 per 1 mm2 and 192 per 1 mm2 and 173 per 1 mm2 and 255 per 1 mm2 and 236 per 1 mm2
O=C1C(c2ccccc2)=NC(NS(=O)(=O)c2ccccc2)(c2ccccc2)N1S(=O)(=O)c1ccccc1 (stereo not shown) [Stomidazolone],reduction of total number of stomata and meristemoids,[1]; 20 μM,14.46%
same,Total (stomata+meristemoid) density,"[1]; 20 uM, WT cotyledon abaxial epidermis, 9 dag, single seedlings n=8 (Fig. 1e)",156 per mm^2 and 173 per mm^2 and 163 per mm^2 and 168 per mm^2 and 107 per mm^2 and 154 per mm^2 and 144 per mm^2 and 124 per mm^2
same,Stomata density,"[1]; 20 uM, WT, 9 dag, single seedlings n=8 (Fig. 1e)",115 per mm^2 and 141 per mm^2 and 144 per mm^2 and 132 per mm^2 and 88 per mm^2 and 127 per mm^2
same,"meristemoid density, mean","[1]; 20 uM, WT, mock mean 7.875",24.875 per mm^2
same,"stomata density, mean","[1]; 20 uM, WT, mock mean 165.75",124.25 per mm^2
same,"total (stomata+meristemoid) density, mean","[1]; 20 uM, WT, mock mean 173.75",148.625 per mm^2
same,decrease of the number of stomata from mock,[1]; 50 μM,59.50%
same,increase of the number of meristemoids from mock,[1]; 50 μM,801.5%
same,reduction of total number of stomata and meristemoids,[1]; 50 μM,25.03%
same,Total (stomata+meristemoid) density,"[1]; 50 uM, WT, 9 dag, single seedlings n=8 (Fig. 1e)",166 per mm^2 and 149 per mm^2 and 124 per mm^2 and 132 per mm^2 and 146 per mm^2 and 100 per mm^2 and 115 per mm^2 and 110 per mm^2
same,Number of stomata per 1 mm2 of cotyledon abaxial epidermis,"[1]; 50 μM, WT, 9 dag",70 per 1 mm2 and 109 per 1 mm2 and 90 per 1 mm2 and 124 per 1 mm2 and 129 per 1 mm2 and 112 per 1 mm2 and 117 per 1 mm2
same,"meristemoid density, mean","[1]; 50 uM, WT",63.125 per mm^2
same,"stomata density, mean","[1]; 50 uM, WT",67.125 per mm^2
same,"total (stomata+meristemoid) density, mean","[1]; 50 uM, WT",130.25 per mm^2
same,Stomata density,[1]; [3],90 per mm2 and 117 per mm2 and 102 per mm2 and 75 per mm2 and 107 per mm2 and 148 per mm2
same,Total (stomata+meristemoid) density,[1]; [3],104 per mm2 and 136 per mm2 and 119 per mm2 and 102 per mm2 and 87 per mm2 and 124 per mm2 and 168 per mm2 and 158 per mm2
same,Meristemoid density,"[1]; 50 μM, WT, single seedlings n=8 (Fig. 4b, replotted 4k)",15 per mm2 and 19 per mm2 and 17 per mm2 and 12 per mm2 and 10 per mm2
same,Meristemoid density,[1]; [4],0 per mm2 and 2 per mm2 and 10 per mm2 and 5 per mm2 and 7 per mm2
same,Stomata density,[1]; [4],214 per mm2 and 241 per mm2 and 216 per mm2 and 228 per mm2 and 194 per mm2 and 250 per mm2 and 182 per mm2 and 207 per mm2
same,Total cell density,[1]; [4],214 per mm2 and 243 per mm2 and 226 per mm2 and 233 per mm2 and 199 per mm2 and 253 per mm2 and 190 per mm2 and 209 per mm2
same,decrease of the number of stomata from mock,[1]; 100 μM,69.53%
same,increase of the number of meristemoids from mock,[1]; 100 μM,647.6%
same,Total (stomata+meristemoid) density,"[1]; 100 uM, WT, 9 dag, single seedlings n=8 (Fig. 1e)",120 per mm^2 and 85 per mm^2 and 71 per mm^2 and 112 per mm^2 and 95 per mm^2 and 122 per mm^2
same,"meristemoid density, mean","[1]; 100 uM, WT",51 per mm^2
same,"stomata density, mean","[1]; 100 uM, WT",50.5 per mm^2
same,"total (stomata+meristemoid) density, mean","[1]; 100 uM, WT",101.25 per mm^2
same,effect on overall seedling growth,"[1]; liquid culture, even at 100 μM (Fig. 1f)",does not affect
same,MI (%) meristemoid index,[2]; 20 uM,2.39% and 0% and 2.612% and 2.336% and 2.778% and 1.339% and 0.4219% and 0.7905%
same,SI (%) stomatal index,[2]; 20 uM,22.3108% and 29.661% and 27.2388% and 24.7664% and 32.1429% and 24.5536% and 35.443% and 19.7628%
same,MI (%) meristemoid index,[2]; 50 uM,0% and 2.954% and 0.8658% and 1.852% and 0.4878% and 0.5208% and 2.991%
same,SI (%) stomatal index,[2]; 50 uM,27.027% and 21.097% and 20.3463% and 25.9259% and 27.9412% and 25.8537% and 27.6042% and 20.9402%
same,MI (%) meristemoid index,[2]; 100 uM,2.4% and 0.7812% and 3.364% and 2.326% and 0.4717% and 8.069% and 4.2623% and 3.509%
same,SI (%) stomatal index,[2]; 100 uM,20.4% and 25% and 12.844% and 16.2791% and 24.0566% and 14.9856% and 17.377% and 15.4386%
same,effect on seedling growth,"[2]; solid media, 100 μM (Supplementary Fig. 2d)",subtle growth retardation
same,effect on stomatal differentiation (in words),"[2]; solid media, 20, 50, 100 μM (Supplementary Fig. 2a-c)",inhibited stomatal differentiation in a dose-dependent manner
same,effect on seedling morphology / growth,"[2]; solid media, 20 and 50 μM (Supplementary Fig. 2d)",does not impact; also recorded: does not affect growth
